Results from US10702506B2, “Small molecule inhibitors of pendrin ion exchange and pharmaceutical compositions” (THE REGENTS OF THE UNIVERSITY OF CALIFORNIA, priority 2016, dated 2020).

Molecular target: T1, ENaC (Homo sapiens, UniProt P37088+P51168+P51170)
T1 construct: endogenous in cells; host or cells: IL-13-treated primary human bronchial epithelial (HBE) cell cultures
T1 sequence (P37088 1-669): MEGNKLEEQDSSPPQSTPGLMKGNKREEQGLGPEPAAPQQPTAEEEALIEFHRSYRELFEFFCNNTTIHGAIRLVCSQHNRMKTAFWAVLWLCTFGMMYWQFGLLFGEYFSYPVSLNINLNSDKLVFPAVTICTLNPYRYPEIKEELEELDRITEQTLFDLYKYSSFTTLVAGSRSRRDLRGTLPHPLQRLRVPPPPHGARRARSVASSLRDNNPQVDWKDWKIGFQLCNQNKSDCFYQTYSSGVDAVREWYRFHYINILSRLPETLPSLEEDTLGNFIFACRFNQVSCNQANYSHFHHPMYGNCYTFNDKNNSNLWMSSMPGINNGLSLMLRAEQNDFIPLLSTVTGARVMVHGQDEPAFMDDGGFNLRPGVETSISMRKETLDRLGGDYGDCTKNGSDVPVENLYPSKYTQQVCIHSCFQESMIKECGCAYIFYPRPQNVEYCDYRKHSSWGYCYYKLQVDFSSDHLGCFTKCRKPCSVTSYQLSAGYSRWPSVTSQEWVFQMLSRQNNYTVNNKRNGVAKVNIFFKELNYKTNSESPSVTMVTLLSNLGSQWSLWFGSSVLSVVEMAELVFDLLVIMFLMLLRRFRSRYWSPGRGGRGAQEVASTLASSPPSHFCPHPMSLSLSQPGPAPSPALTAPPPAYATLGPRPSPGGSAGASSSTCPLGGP
T1 sequence (P51168 1-640): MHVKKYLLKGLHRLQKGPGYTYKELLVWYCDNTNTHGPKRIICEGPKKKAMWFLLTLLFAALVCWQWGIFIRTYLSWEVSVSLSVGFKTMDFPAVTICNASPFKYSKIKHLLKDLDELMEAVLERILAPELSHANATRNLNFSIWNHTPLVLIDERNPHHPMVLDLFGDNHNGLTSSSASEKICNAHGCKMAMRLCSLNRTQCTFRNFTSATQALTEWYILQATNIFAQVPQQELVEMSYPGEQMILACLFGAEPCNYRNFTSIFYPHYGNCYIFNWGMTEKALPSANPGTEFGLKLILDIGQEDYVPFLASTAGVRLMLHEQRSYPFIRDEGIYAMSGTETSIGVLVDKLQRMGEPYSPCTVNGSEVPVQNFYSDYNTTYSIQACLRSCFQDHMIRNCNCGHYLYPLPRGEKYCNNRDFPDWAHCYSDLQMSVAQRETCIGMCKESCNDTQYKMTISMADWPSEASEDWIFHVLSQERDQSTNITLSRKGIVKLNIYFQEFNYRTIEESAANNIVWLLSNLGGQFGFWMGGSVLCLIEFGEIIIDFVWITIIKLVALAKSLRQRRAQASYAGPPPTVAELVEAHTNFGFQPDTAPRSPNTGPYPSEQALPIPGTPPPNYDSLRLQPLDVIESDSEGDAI
T1 sequence (P51170 1-649): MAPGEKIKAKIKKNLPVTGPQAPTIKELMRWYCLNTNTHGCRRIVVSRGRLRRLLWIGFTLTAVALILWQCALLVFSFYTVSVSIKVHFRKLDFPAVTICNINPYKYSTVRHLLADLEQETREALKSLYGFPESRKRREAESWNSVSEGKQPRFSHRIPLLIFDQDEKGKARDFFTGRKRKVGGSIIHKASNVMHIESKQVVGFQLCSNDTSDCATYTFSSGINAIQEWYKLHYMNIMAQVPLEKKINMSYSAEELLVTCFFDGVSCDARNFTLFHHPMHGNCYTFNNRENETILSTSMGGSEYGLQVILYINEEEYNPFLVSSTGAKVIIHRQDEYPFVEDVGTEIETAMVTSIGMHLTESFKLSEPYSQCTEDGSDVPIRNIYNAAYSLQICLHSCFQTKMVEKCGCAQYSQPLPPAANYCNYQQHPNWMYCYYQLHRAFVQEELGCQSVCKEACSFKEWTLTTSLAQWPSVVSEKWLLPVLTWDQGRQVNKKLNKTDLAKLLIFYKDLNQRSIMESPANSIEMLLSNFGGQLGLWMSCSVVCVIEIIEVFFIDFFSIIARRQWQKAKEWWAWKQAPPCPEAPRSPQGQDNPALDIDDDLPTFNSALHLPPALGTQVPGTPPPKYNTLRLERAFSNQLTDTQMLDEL
Experiment: Short-circuit current (Isc) analysis in IL-13-treated HBE cells, amiloride response
Assay type: cell-based
Settings: 25 μM, 30 min pre-treatment
Procedure: Further experiments were done with PDSinh-A01 because of its greater inhibition potency for Cl^−/HCO3^− exchange than PDSinh-C01. To investigate PDSinh-A01 specificity, the major ion transport pathways in HBE cells were studied by short-circuit current (Isc) analysis. Cells were treated with IL-13 to increase Ca^2+-activated Cl^− conductance (CaCC) activity. For Isc measurements, cells were sequentially treated with amiloride to inhibit the epithelial sodium channel (ENaC), forskolin to activate the cystic fibrosis transmembrane conductance regulator (CFTR), CFTRinh-172 to inhibit CFTR, and ATP to activate CaCC. In the absence of PDSinh-A01, ion channel modulators produced the anticipated changes in Isc (FIG. 4A).
IL-13-treated HBE cells were cultured on Snapwell clear permeable supports (12 mm diameter, 0.4 μm polyester membrane, Costar, Corning, Corning, N.Y.). Short-circuit current was measured using symmetrical HCO3^−-buffered solutions (in mM: 120 NaCl, 5 KCl, 1 MgCl2, 1 CaCl2, 5 Hepes, 25 NaHCO3; pH 7.4) as described, with ion transport modulators added to both apical and basolateral bathing solutions. Cells were equilibrated with 95% O2/5% CO2 and maintained at 37° C. during data acquisition. Statistical analysis was by Student's t-test.

SMILES: Cn1nc(COc2cccc(F)c2)c2c1CCN(C(=O)Nc1ccc(Cl)cc1)C2 [PDSinh-A01]
- effect on ENaC activity (Isc response): did not affect the activity
